Test results from the supplement of paper PMC5303821, “Major sulfonate transporter Soa1 in Saccharomyces cerevisiae and considerable substrate diversity in its fungal family” (Nature Communications, 2017).

Tests used:
Conditions in all cases: sulfur source concentration 200 µM; S. cerevisiae S288C/BY sul1Δ sul2Δ soa1Δ with transporter ortholog inserted at SOA1 locus; sulfur-free B medium, 4% glucose, pH 6.5, sole sulfur source
[1] = system: Metarhizium robertsii_XP_007822519; assay: lag phase before growth; higher = slower start of growth
Description: (§1)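 S. cerevisiae sul1Δ sul2Δ soa1Δ strains expressing 20 fungal SOA1 orthologs (or no transporter, 'soa1 del') were grown in liquid sulfur-free B medium, 4% glucose, pH 6.5 (7 mM K2HPO4). The strains were sulfur-starved for 3 days beforehand. Each sulfur compound was the sole sulfur source at 200 µM (sulfate also at 40 mM). OD600 curves of duplicate cultures were averaged and fitted (logistic / Richards, GroFit) to give maximal growth rate, maximal density and lag phase; temperature not stated.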

[2] = system: Ogataea parapolymorpha_XP_013935289; assay: as above
Description: as §1

[3] = system: Saccharomyces cerevisiae_SOA1; assay: as above
Description: as §1

[4] = system: Saccharomyces uvarum_SOA1; assay: as above
Description: as §1

[5] = system: Aspergillus nidulans (IAM 2006)_astA; assay: maximal culture density with compound as sole sulfur source (OD600); higher = better growth
Description: as §1

[6] = system: Aspergillus nidulans_CBF74694; assay: as above
Description: as §1

[7] = system: Aspergillus nidulans_CBF80346; assay: as above
Description: as §1

[8] = system: Aspergillus nidulans_XP_660563; assay: as above
Description: as §1

[9] = system: Aspergillus nidulans_XP_660670; assay: as above
Description: as §1

[10] = system: Aspergillus nidulans_XP_661711; assay: as above
Description: as §1

[11] = system: Aspergillus nidulans_XP_661733; assay: as above
Description: as §1

[12] = system: Aspergillus nidulans_XP_681611; assay: as above
Description: as §1

[13] = system: Fusarium oxysporum_ENH65823; assay: as above
Description: as §1

[14] = system: Metarhizium robertsii_XP_007821441; assay: as above
Description: as §1

[15] = system: Metarhizium robertsii_XP_007822519; assay: as above
Description: as §1

[16] = system: Metarhizium robertsii_XP_007823832; assay: as above
Description: as §1

[17] = system: Ogataea parapolymorpha_XP_013932458; assay: as above
Description: as §1

[18] = system: Ogataea parapolymorpha_XP_013935289; assay: as above
Description: as §1

[19] = system: Ogataea parapolymorpha_XP_013936897; assay: as above
Description: as §1

[20] = system: Saccharomyces cerevisiae_SOA1; assay: as above
Description: as §1

[21] = system: Saccharomyces eubayanus_SOA1; assay: as above
Description: as §1

[22] = system: Saccharomyces eubayanus_SOA2; assay: as above
Description: as §1

[23] = system: Saccharomyces uvarum_SOA1; assay: as above
Description: as §1

[24] = system: Saccharomyces uvarum_SOA2; assay: as above
Description: as §1

soa1 del = assay: as above
Description: as §1

[25] = system: Aspergillus nidulans (IAM 2006)_astA; assay: maximal growth rate with compound as sole sulfur source (OD600 per h); higher = better growth / uptake of the sulfur source
Description: as §1

[26] = system: Aspergillus nidulans_CBF80346; assay: as above
Description: as §1

[27] = system: Metarhizium robertsii_XP_007821441; assay: as above
Description: as §1

[28] = system: Metarhizium robertsii_XP_007822519; assay: as above
Description: as §1

[29] = system: Metarhizium robertsii_XP_007823832; assay: as above
Description: as §1

[30] = system: Ogataea parapolymorpha_XP_013935289; assay: as above
Description: as §1

[31] = system: Ogataea parapolymorpha_XP_013936897; assay: as above
Description: as §1

[32] = system: Saccharomyces eubayanus_SOA1; assay: as above
Description: as §1

[33] = system: Saccharomyces uvarum_SOA1; assay: as above
Description: as §1

[34] = system: Saccharomyces eubayanus_SOA1; assay: lag phase before growth; higher = slower start of growth
Description: as §1

[35] = system: Saccharomyces uvarum_SOA2; assay: as above
Description: as §1

SMILES	lag phase before growth [1] [h]	lag phase before growth [2] [h]	lag phase before growth [3] [h]	lag phase before growth [4] [h]	maximal culture density [5]	maximal culture density [6]	maximal culture density [7]	maximal culture density [8]	maximal culture density [9]	maximal culture density [10]	maximal culture density [11]	maximal culture density [12]	maximal culture density [13]	maximal culture density [14]	maximal culture density [15]	maximal culture density [16]	maximal culture density [17]	maximal culture density [18]	maximal culture density [19]	maximal culture density [20]	maximal culture density [21]	maximal culture density [22]	maximal culture density [23]	maximal culture density [24]	maximal culture density (soa1 del)	maximal growth rate [25]	maximal growth rate [26]	maximal growth rate [27]	maximal growth rate [28]	maximal growth rate [29]	maximal growth rate [30]	maximal growth rate [31]	maximal growth rate [32]	maximal growth rate [33]	lag phase before growth [34] [h]	lag phase before growth [35] [h]
N[C@@H](CS(=O)(=O)O)C(=O)O [L-cysteic acid]	17.9	10.9	12.6	6.98	1.41	0.451	0.823	0.535	1.13	1.16	1.3	0.861	1.16	0.3	1.38	1.43	0.331	1.51	0.391	1.46	0.561	0.254	1.25	0.234	0.254	0.0282	0.00644	0.00544	0.00861	0.028	0.035	0.00557	0.00648	0.00754		
CCCCS(=O)(=O)O [Butanesulfonate]		6.98	9.34	8.4	0.596	0.2	0.26	0.355	0.267	0.267	0.279	0.368	0.241	0.246	0.261	0.604	0.274	1.6	0.323	1.58	1.57	1.69	1.59	1.71	0.247	0.0185	0.00447	0.00375	0.00366	0.0152	0.087	0.0049	0.0734	0.0795	9.71	12.7
